Source: patent US20240174669A1, “CRYSTALLINE FORMS OF A PARP1 INHIBITOR” (XinThera, Inc., priority 2022, published 2024)
≈ marks a conversion by molar mass, not a printed value.

Experiment: Solubility estimation at RT by visual observation in solvent systems
Assay type: physicochemical
Conditions: organic solvent or mixture, thermodynamic from solid
Description: The solubility of compound 1 was estimated at RT by visual observation in 11 solvent systems. Approximately 5 mg solids were weighed into 8 mL glass vial, and then solvent was added stepwise until solids were dissolved completely or a total of solvent volume reached 5 mL. […] The solubility was estimated and for reference only.

solubility (most of the 11 tested solvent systems, RT, most tested solvents, except DMSO): < 5000 µg/mL | solubility (estimated at RT, visual observation, DMSO): 20000 to 50000 µg/mL (≈ 47.8 to 119 mM) | solubility (estimated at RT, Acetone, ACN, Toluene, EA, n-Heptane, Water, Anisole, DCM, THF): < 1000 µg/mL | solubility (estimated, visual observation, MeOH, THF (50° C.)): 1000 to 5000 µg/mL (≈ 2.39 to 11.9 mM)
Compound: CNC(=O)c1ccc(N2CCN(Cc3cnc4cc(C5CC5)c(=O)[nH]c4c3)CC2)cn1 [Starting material, 5-(4-((7-cyclopropyl-6-oxo-5,6-dihydro-1,5-naphthyridin-3-yl)methyl)piperazin-1-yl)-N-methylpicolinamide]
